Values quoted from earlier work in patent publication US20260130963A1, “COMPOSITIONS COMPRISING RED YEAST RICE” (Meda Pharma S.p.A., priority 2021, published 2026).
In brackets after ≈: the same amount, converted by molar mass.

What was measured:
[1] = “low solubility/high permeability”
[2] = in vivo

**Q.** Which results are given for CC[C@H](C)C(=O)O[C@H]1C[C@@H](C)C=C2C=C[C@H](C)[C@H](CC[C@@H]3C[C@@H](O)CC(=O)O3)[C@H]21 [Lovastatin]?
**A.** BCS classification [1]: BCS Class II; half-life [2]: 1 to 2 h; water solubility: 0.4 µg/mL (≈ 0.989 µM)
